From patent publication US8431706B2, “1,2,3,4-tetrahydroqinoline derivative useful for the treatment of diabetes” (Eli Lilly and Company, priority 2011, dated 2013)

What was measured:
Male Balb/c mice = assay: Intraperitoneal Glucose Tolerance Test (IPGTT); assay type: in vivo, mouse
Method: To examine the ability of exemplified the compound to activate GPR40 in-vivo resulting in anti-diabetic efficacy, i.e. reduction in plasma glucose levels, a 4-day intraperitoneal glucose tolerance test (ipGTT) study is completed, and the data is shown for the compound tested below.
Male Balb/c (Albino mice) mice (8-9 weeks of age) are single housed, and fed with normal rodent chow diet and water ad libitum. Animals are weighed; randomized by body weight; and their daily body weights are recorded Animals are dosed once per day orally for three days using a formulation carrying methylcellulose and tween-80. On the night before Day 4, animals are fasted overnight. On the morning of Day 4, animals are dosed orally with compound or vehicle alone 60 minutes prior to the glucose tolerance test (glucose 2 g/kg, i.p.). Blood glucose levels are determined from tail bleeds taken at 0, 3, 7, 15, 30, and 60 min after glucose challenge. The blood glucose excursion profile from t=0 to t=60 min is used to integrate an area under the curve (AUC) for each treatment. Percent lowering in glucose is calculated from the AUC data of the compound with respect to the AUC of vehicle group. The test compound is orally administered at 0.3, 1.0, 3.0, 10, or 30 mg/kg, and a positive control (3-[4-(2-methyl-benzyloxy)-phenyl]-hex-4-ynoic acid, see WO2005086661.) is administered at 10 mg/kg. […] Glucose levels are lowered at the 15, 30, and 60 minute time points for the positive control. The ED50 for this compound based on AUCs for glucose lowering is 1.0 mg/kg.

PPARγ = molecular target: T1, PPARγ (Homo sapiens, UniProt P37231); assay: PPARγ reporter functional assay in CV1 cells; assay type: cell-based; details: examined up to 10 μM; luciferase reporter; 24 hours
T1 sequence (P37231 1-505): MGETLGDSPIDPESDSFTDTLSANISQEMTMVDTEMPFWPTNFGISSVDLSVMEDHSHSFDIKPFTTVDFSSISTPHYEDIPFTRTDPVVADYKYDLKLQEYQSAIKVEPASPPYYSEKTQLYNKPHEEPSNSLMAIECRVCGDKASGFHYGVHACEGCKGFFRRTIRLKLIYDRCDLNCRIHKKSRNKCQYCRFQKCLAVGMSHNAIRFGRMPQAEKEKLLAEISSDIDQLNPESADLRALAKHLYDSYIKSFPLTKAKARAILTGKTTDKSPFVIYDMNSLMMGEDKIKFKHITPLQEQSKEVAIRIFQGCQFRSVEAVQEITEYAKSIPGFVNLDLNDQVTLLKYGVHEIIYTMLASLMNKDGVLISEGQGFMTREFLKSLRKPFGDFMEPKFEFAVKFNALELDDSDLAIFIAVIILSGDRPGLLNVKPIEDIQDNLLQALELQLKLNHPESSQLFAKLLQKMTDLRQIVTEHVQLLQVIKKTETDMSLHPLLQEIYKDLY
T1 sequence (P19793 1-462 partner): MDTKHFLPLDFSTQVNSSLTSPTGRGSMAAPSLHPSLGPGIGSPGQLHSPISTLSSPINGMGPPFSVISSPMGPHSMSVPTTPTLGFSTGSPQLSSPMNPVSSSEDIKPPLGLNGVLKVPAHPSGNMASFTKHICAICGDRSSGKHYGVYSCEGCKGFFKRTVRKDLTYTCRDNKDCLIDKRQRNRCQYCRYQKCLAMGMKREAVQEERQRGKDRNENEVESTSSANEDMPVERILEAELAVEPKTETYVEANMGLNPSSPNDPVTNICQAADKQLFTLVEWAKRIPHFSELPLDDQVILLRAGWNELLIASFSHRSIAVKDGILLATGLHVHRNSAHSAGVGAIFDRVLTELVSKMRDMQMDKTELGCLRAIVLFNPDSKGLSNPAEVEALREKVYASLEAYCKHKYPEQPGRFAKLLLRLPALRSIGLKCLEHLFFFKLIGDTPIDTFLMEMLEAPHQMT
Source text: Gal4 PPARα, Gal4 PPARδ, and PPARγ reporter functional assays are also used to monitor the selectivity of the exemplified compound. CV1 cells, which are derived from the renal tissue of an African green monkey, are transfected with various receptor and reporter plasmids using Fugene. For the Gal4 PPARα and PPARδ assays, a reporter plasmid containing five tandem copies of the yeast transcription protein Gal4 response element, cloned upstream of a firefly luciferase gene driven by the major late promoter of adenovirus, is transfected together with a Simian Virus 40 (SV40) driven plasmid constitutively expressing a hybrid protein containing the Gal4 DNA binding domain (DBD), and either the PPARα or PPARδ ligand binding. For the PPARγ assay, plasmids encoding PPARγ and RXRα, both driven by a cytomegalovirus (CMV) promoter are transfected together with a plasmid containing luciferase reporter cDNA driven by the TK promoter and a receptor response element (2×PPRE). Cells are transfected in T225 cm^2 cell culture flasks in DMEM media with 5% charcoal-stripped FBS. […] After 24 hours incubation with the compound, cells are lysed and luciferase activity is determined as a measure of receptor activation by luminescence. […] The maximum percent stimulation is determined versus maximum stimulation obtained with 10 μM of an appropriate PPAR agonist reference compound. […]

SMILES: CC#C[C@@H](CC(=O)O)c1ccc(OCc2ccc(CN3CCCc4cccc(OC)c43)s2)cc1 [Example 1, (3S)-3-[4-[[5-[(8-Methoxy-3,4-dihydro-2H-quinolin-1-yl)methyl]-2-thienyl]methoxy]phenyl]hex-4-ynoic acid]
- Glucose levels compared to vehicle control, 30 and 60 minute time points (Male Balb/c mice; 1.0, 3.0, 10 and 30 mg/kg oral doses): significantly lowered
- Glucose levels compared to vehicle control, 15 minute time point (Male Balb/c mice; 3, 10 and 30 mg/kg oral doses): significantly lowered
- ED50 (Male Balb/c mice; Mus musculus, oral, once per day, 4 days, glucose 2 g/kg i.p., AUC t=0 to 60 min, read-out: ED50 based on AUCs for glucose lowering): 1 mg/kg
- functional activation of PPARγ (PPARγ): No functional activation
